Experimental data as given in patent US9422292B2, “Bromodomain inhibitors and uses thereof” (Constellation Pharmaceuticals, Inc., priority 2011, dated 2016).
Read-outs that look alike come from different tables or passages of the source.

Experiments:
[1] = tested on: MYC mRNA in MV4:11 (AML) cells; assay: cMyc RNA quantification assay (QuantiGene) in MV4:11 cells; assay type: cell-based; conditions: Homo sapiens, 4 h, QuantiGene 2.0
Experimental: B. cMyc RNA Quantification Assay (QuantiGene® Assay):
MV4:11 (AML) cells were seeded in a 96-well plate and incubated in the presence of various concentrations of compounds for 4 h. Relative mRNA levels were quantitated by using QuantiGene 2.0 assay (Affymetrix) according to the manufacturer's recommendation. Signals were detected by using an Envision plate reader (Perkin-Elmer). Biological duplicates were averaged and normalized to vehicle (DMSO) control to calculate percent MYC mRNA levels.

[2] = tested on: IL-6 secretion in THP-1 cells; assay: Cell-based IL-6 quantification assay (ELISA, Mesoscale) in LPS-treated THP-1 cells; conditions: Homo sapiens, LPS 4 μg/mL, 16 h, ELISA value/CellTiter-Glo ratio
Experimental: C. Cell-Based IL-6 Quantification Assay (ELISA, Mesoscale Assay):
100,000 THP-1 cells were seeded in RPMI1640-10% FBS in 96-well plates. LPS (E. Coli Invitrogen) in RPMI−10% FBS at a final concentration of 4 μg/mL was added to the wells and the cells are then incubated in the presence of various concentrations of compounds for 16 h. Plates are spun ([…], 5 min), an aliquot of 25 uL supernatant is transferred in to an ELISA plate (Mesoscale technology, MSD) and the detection of IL-6 is performed using manufacturer's instructions. The amount of cells in each well is assessed using CellTiter-Glo® (Promega). The ratio of ELISA value/CellTiter-Glo value is used to calculate the percent of inhibition of IL-6 secretion.

[3] = biological target: T1, BRD4 (BD1) (Homo sapiens, UniProt O60885); assay: BRD4 AlphaLisa binding assay
T1 construct: His; made in house
Experimental: A. IC50 Measurements for Inhibitors Using BRD4 AlphaLisa Binding Assay.
Specifically, in a 384 well ProxiPlate BRD4 (BD1) (30 nM final) was combined with peptide (200 nM final) in 40 mM HEPES (pH 7.0), 40 mM NaCl, 1 mM DTT, 0.01% (w/v) BSA, and 0.008% (w/v) Brij-35 either in the presence of DMSO (final 1.2% DMSO) or compound dilution series in DMSO. After 20 minute incubation at room temperature Alpha streptavidin donor beads and AlphaLisa anti-Flag acceptor beads were added to a final concentration of 10 ug/mL each. After three hours equilibration plates were read on an Envision instrument and IC50s calculated using a four parameter non-linear curve fit.

[4] = BRD4 (BD1) 30 nM, biotinylated H4-tetraacetyl peptide 200 nM, read-out: BRD4 AlphaLisa

Structure (SMILES) | IC50 [1] | IC50 [2] | IC50 [3, 4] | IC50 [3]
Cc1nnc2n1-c1ccc(-c3cnc(N)nc3)cc1N(c1ccc(Cl)cc1)CC2C (stereo not shown) [Compound 25] | < 0.1 µM | 0.1 to 1 µM | < 0.1 µM | 
Cc1ccc(-c2ccc3c(c2)N(c2ccc(Cl)cc2)C[C@@H](C)c2nnc(C)n2-3)cn1 [Compound 29, (R)-4H-[1,2,4]triazolo[4,3-a][1,5]benzodiazepine, 5,6-dihydro-1,4-dimethyl-8-(6-methylpyridin-3-yl)-6-(4-chloro-phenyl)] | < 0.1 µM | < 0.1 µM | < 0.1 µM | 
Cc1nnc2n1-c1ccc(-c3ccccc3)cc1N(c1ccc(Cl)cc1)CC2 [Compound 14, 6-(4-chlorophenyl)-1-methyl-8-phenyl-5,6-dihydro-4H-benzo[b][1,2,4]triazolo[4,3-d][1,4]diazepine] |  | 1 to 10 µM | 0.1 to 1 µM | 
Cc1nnc2n1-c1ccc(-c3cnn(C)c3)cc1N(c1ccc(C#N)cc1)C[C@H]2C [Compound 44, (R)-4H-[1,2,4]triazolo[4,3-a][1,5]benzodiazepine, 5,6-dihydro-1,4-dimethyl-8-(1-methyl-1H-pyrazol-4-yl)-6-(4-cyano-phenyl)] | < 0.1 µM | < 0.1 µM | < 0.1 µM | 
Cc1nnc2n1-c1ccc(-c3cnn(C)n3)cc1N(c1ccc(C#N)cc1)C[C@@H]2C [Compound 74, (R)-4H-[1,2,4]Triazolo[4,3-a][1,5]benzodiazepine, 5,6-dihydro-1,4-dimethyl-8-(2-methyl-2H-1,2,3-triazole-4-yl)-6-(4-cyano-phenyl)] |  | > 1 µM | 0.1 to 1 µM | 
Cc1nnc2n1-c1ccc(-c3ccc(N)nc3)cc1N(C)CC2 [Compound 5, 5-(1,6-dimethyl-5,6-dihydro-4H-benzo[b][1,2,4]triazolo[4,3-d][1,4]diazepin-8-yl)pyridin-2-amine] |  | 1 to 10 µM | 1 to 10 µM | 
Cc1nnc2n1-c1ccc(-c3cnn(C)c3)cc1N(c1ccc(C#N)cc1)C[C@@H]2C [Compound 45, (S)-4H-[1,2,4]triazolo[4,3-a][1,5]benzodiazepine,5,6-dihydro-1,4-dimethyl-8-(1-methyl-1H-pyrazol-4-yl)-6-(4-cyano-phenyl)] |  | > 1 µM | 0.1 to 1 µM | 
Cc1nnc(-c2ccc3c(c2)N(c2ccc(Cl)cc2)C[C@@H](C)c2nnc(C)n2-3)o1 [Compound 49, 4-R-4H-[1,2,4]triazolo[4,3-a][1,5]benzodiazepine,5,6-dihydro-1,4-dimethyl-8-(5-methyl-1,3,4-oxadiazol-2-yl)-6-(4-chloro-phenyl)] | < 0.1 µM | < 0.1 µM | < 0.1 µM | 
Cc1nnc2n1-c1ccc(C(=O)N3CCOCC3)cc1N(c1ccc(Cl)cc1)C[C@H]2C [Compound 56, 4-R-4H-[1,2,4]triazolo[4,3-a][1,5]benzodiazepine,5,6-dihydro-1,4-dimethyl-8-(morpholine-4-carbonyl)-6-(4-chloro-phenyl)] |  | > 1 µM | 0.1 to 1 µM | 
CCC1CN(c2ccc(Cl)cc2)c2ccccc2-n2c(C)nnc21 (stereo not shown) [Compound 32] |  |  |  | 1 to 10 µM
Cc1nnc2n1-c1ccc(Br)cc1N(c1ccc(Cl)cc1)CC2 [Compound 13, 8-bromo-6-(4-chlorophenyl)-1-methyl-5,6-dihydro-4H-benzo[b][1,2,4]triazolo[4,3-d][1,4]diazepine] |  | 0.1 to 1 µM | 0.1 to 1 µM | 
Cc1nnc2n1-c1ccc(C#CC(C)(C)O)cc1N(c1ccc(Cl)cc1)CC2C (stereo not shown) [Compound 36, 4H-[1,2,4]triazolo[4,3-a][1,5]benzodiazepine,5,6-dihydro-1,4-dimethyl-8-(3-hydroxy-3-methylbut-1-ynyl)-6-(4-chloro-phenyl)] |  |  | 0.1 to 1 µM | 
Cc1nnc2n1-c1ccccc1N(c1ccc(Cl)cc1)CC21CC1 [Compound 34, 6-(4-chlorophenyl)-1-methyl-5,6-dihydrospiro[benzo[b][1,2,4]triazolo[4,3-d][1,4]diazepine-4,1′-cyclopropane]] |  |  | 0.1 to 1 µM | 
CCNC(=O)CC1CN(c2ccc(Cl)cc2)c2ccccc2-n2c(C)nnc21 (stereo not shown) [Compound 10, 2-(6-(4-chlorophenyl)-1-methyl-5,6-dihydro-4H-benzo[b][1,2,4]triazolo[4,3-d][1,4]diazepin-4-yl)-N-ethylacetamide] |  | 1 to 10 µM | 1 to 10 µM | 
Cc1nnc2n1-c1ccc(-c3cnn(C)c3)cc1N(c1ccc(Cl)cc1)CC2 [Compound 30, 4H-[1,2,4]triazolo[4,3-a][1,5]benzodiazepine,5,6-dihydro-1methyl-8-(1-methyl-1H-pyrazol-4-yl)-6-(4-chloro-phenyl)] |  |  | < 0.1 µM | 
Cc1nnc2n1-c1ccc(-c3cnc(N)nc3)cc1N(c1ccc(Cl)cc1)C[C@@H]2C [Compound 40, (S)-4H-[1,2,4]triazolo[4,3-a][1,5]benzodiaze-pine,5,6-dihydro-1,4-dimethyl-8-(2-aminopyrimidin-5-yl)-6-(4-chloro-phenyl)] |  | > 1 µM | 1 to 10 µM | 
Cc1nnc2n1-c1cc(F)ccc1N(c1ccc(Cl)cc1)CC2C (stereo not shown) [Compound 35, 4H-[1,2,4]triazolo[4,3-a][1,5]benzodiazepine,5,6-dihydro-1,4-dimethyl-9-fluoro-6-(4-chloro-phenyl)] |  |  | 0.1 to 1 µM | 
Cc1nnc2n1-c1ccc(-c3ccc(N)nc3)cc1NCC2 [Compound 6, 5-(1-methyl-5,6-dihydro-4H-benzo[b][1,2,4]triazolo[4,3-d][1,4]diazepin-8-yl)pyridin-2-amine] |  | > 10 µM | 1 to 10 µM | 
Cc1nnc2n1-c1ccccc1NC(C)C2 (stereo not shown) [Compound 12, 1,5-dimethyl-5,6-dihydro-4H-benzo[b][1,2,4]triazolo[4,3-d][1,4]diazepine] |  | > 10 µM | > 10 µM | 
Cc1nnc2n1-c1ccccc1N(c1ccc(Cl)cc1)CC2CCO (stereo not shown) [Compound 9, 2-(6-(4-chlorophenyl)-1-methyl-5,6-dihydro-4H-benzo[b][1,2,4]triazolo[4,3-d][1,4]diazepin-4-yl)ethanol] |  | 1 to 10 µM | 1 to 10 µM | 
Cc1nnc2n1-c1ccccc1N(c1ccc(Cl)cc1)CC21CC1CO (stereo not shown) [Compound 11, (6-(4-chlorophenyl)-1-methyl-5,6-dihydrospiro[benzo[b][1,2,4]triazolo[4,3-d][1,4]diazepine-4,1′-cyclopropan]-2′-yl)methanol] |  | 1 to 10 µM | 1 to 10 µM | 
Cc1nnc2n1-c1ccc(Br)cc1N(c1ccc(Cl)cc1)CC21CC1 [Compound 33, 8-bromo-6-(4-chlorophenyl)-1-methyl-5,6-dihydrospiro[benzo[b][1,2,4]triazolo[4,3-d][1,4]diazepine-4,1′-cyclopropane]] |  |  | 0.1 to 1 µM | 
Cc1nnc2n1-c1ccc(-c3ccc(N)nc3)cc1N(c1cnn(C)c1)C[C@H]2C [Compound 76, (R)-5-(1,4-dimethyl-6-(1-methyl-1H-pyrazol-4-yl)-5,6-dihydro-4H-benzo[b][1,2,4]triazolo[4,3-d][1,4]diazepin-8-yl)pyridin-2-amine] | 0.1 to 1 µM | 0.1 to 1 µM |  | 
Cc1nnc2n1-c1ccc(-c3ccccc3)cc1NCC2 [Compound 7, 1-methyl-8-phenyl-5,6-dihydro-4H-benzo[b][1,2,4]triazolo[4,3-d][1,4]diazepine] |  | > 1 µM | > 10 µM | 
Cc1nnc2n1-c1ccc(-c3cnc(N)cn3)cc1N(c1ccc(S(C)(=O)=O)cc1)C[C@H]2C [Compound 79, (R)-5-(1,4-dimethyl-6-(4-(methylsulfonyl)phenyl)-5,6-dihydro-4H-benzo[b][1,2,4]triazolo[4,3-d][1,4]diazepin-8-yl)pyrazin-2-amine] | 0.1 to 1 µM |  | < 0.1 µM | 
Cc1nnc2n1-c1ccc(-c3ccccc3)cc1N(C)CC2 [Compound 4, 1,6-dimethyl-8-phenyl-5,6-dihydro-4H-benzo[b][1,2,4]triazolo[4,3-d][1,4]diazepine] |  | > 10 µM | > 10 µM | 
Cc1nnc2n1-c1ccc(C#CC(C)(C)N)cc1N(c1ccc(Cl)cc1)CC2C (stereo not shown) [Compound 31, 4H-[1,2,4]triazolo[4,3-a][1,5]benzodiazepine,5,6-dihydro-1,4-dimethyl-8-(3-amino-3-methylbut-1-ynyll)-6-(4-chloro-phenyl)] |  |  | 0.1 to 1 µM | 
Cc1nnc2n1-c1ccccc1N(c1ccc(Cl)cn1)CC2 [Compound 8, 6-(5-chloropyridin-2-yl)-1-methyl-5,6-dihydro-4H-benzo[b][1,2,4]triazolo[4,3-d][1,4]diazepine] |  | 1 to 10 µM | 1 to 10 µM | 
Cc1nnc2n1-c1ccc(-c3ccc(=O)[nH]c3)cc1N(c1ccc(S(C)(=O)=O)cc1)C[C@H]2C [Compound 78, (R)-5-(1,4-dimethyl-6-(4-(methylsulfonyl)phenyl)-5,6-dihydro-4H-benzo[b][1,2,4]triazolo[4,3-d][1,4]diazepin-8-yl)pyridin-2(1H)-one] | 1 to 10 µM |  | 0.1 to 1 µM | 
